# Literature values as cited in US6815424B2, “Intranasal administration of polypeptides in powdered form” (Pfizer Corporation, priority 1987, dated 2004).
# Conditions: in vivo, inhaled or intranasal
compound,measurement,value
"CC(C)C[C@H](NC(=O)[C@@H](Cc1ccc2ccccc2c1)NC(=O)[C@H](Cc1ccc(O)cc1)NC(=O)[C@H](CO)NC(=O)[C@H](Cc1c[nH]c2ccccc12)NC(=O)[C@H](Cc1c[nH]cn1)NC(=O)[C@@H]1CCC(=O)N1)C(=O)N[C@@H](CCCNC(=N)N)C(=O)N1CCC[C@H]1C(=O)NCC(N)=O [nafarelin acetate, L-pyroglutamyl-L-histidyl-L-tryptophyl-L-seryl-L-tyrosyl-D-3-(2-naphthyl)alanyl-L-leucyl-L-arginyl-L-prolyl-glycinamide]",bioavailability compared to injection,about 2%
